Drawing on patent US7262185B2, “Benzazepine derivative, process for producing the same, and use” (Takeda Chemical Industries Ltd., priority 2001, dated 2007), this text covers melting point for 25 molecules.

One may read the melting point as the temperature of the solid-liquid transition. Take `CCCCOCCOc1ccc(-c2ccc3c(c2)C=C(C(=O)Nc2ccc([S+]([O-])Cc4nnc(SC)n4CCC)cc2)CCN3CC(C)C)cc1` (stereo not shown) [Compound 149, 7-[4-(2-butoxyethoxy)phenyl]-1-isobutyl-N-[4-(5-methylthio-4-propyl-4H-1,2,4-triazol-3-ylmethylsulfinyl)phenyl]-2,3-dihydro-1H-benzazepine-4-carboxamide]: the melting point was in the range of 150 to 152 °C. The figure for `CCCCOCCOc1ccc(-c2ccc3c(c2)C=C(C(=O)Nc2ccc([S+]([O-])CCc4nncn4CCC)cc2)CCN3CCC)cc1` (stereo not shown) [Compound 52, 7-[4-(2-butoxyethoxy)phenyl]-1-propyl-N-[4-[2-(4-propyl-4H-1,2,4-triazol-3-yl)ethylsulfinyl]phenyl]-2,3-dihydro-1H-1-benzazepine-4-carboxamide] is 93 to 101 °C. The same measure for `CCCCOCCOc1ccc(-c2ccc3c(c2)C=C(C(=O)Nc2ccc(C(O)c4cccc[n+]4[O-])c(OC)c2)CCN3)cc1` (stereo not shown) [Compound 3, 7-[4-(2-butoxyethoxy)phenyl]-N-[4-[hydroxy(1-oxidopyridin-2-yl)methyl]-3-methoxyphenyl]-2,3-dihydro-1H-1-benzazepine-4-carboxamide]: 116 to 118 °C; for `CCCCOCCOc1ccc(-c2ccc3c(c2)C=C(C(=O)Nc2ccc([S+]([O-])Cc4nnc(C)c(C)n4)cc2)CCN3CC(C)C)cc1` (stereo not shown) [Compound 37, 7-[4-(2-butoxyethoxy)phenyl]-N-[4-[(5,6-dimethyl-1,2,4-triazin-3-yl)methylsulfinyl]phenyl]-1-isobutyl-2,3-dihydro-1H-1-benzazepine-4-carboxamide]: 178 to 183 °C (dec.); for `CCCCOCCOc1ccc(-c2ccc3c(c2)C=C(C(=O)Nc2ccc(SCc4nncn4CC(C)C)cc2)CCN3CCC)cc1` [Compound 32, 7-[4-(2-butoxyethoxy)phenyl]-N-[4-[(4-isobutyl-4H-1,2,4-triazol-3-yl)methylthio]phenyl]-1-propyl-2,3-dihydro-1H-1-benzazepine-4-carboxamide]: 130 to 132 °C. With `CCCCOCCOc1ccc(-c2ccc3c(c2)C=C(C(=O)Nc2ccc([C@H](O)c4cccc[n+]4[O-])cc2)CCN3Cc2ccccc2)cc1` [Compound 90, 1-benzyl-7-[4-(2-butoxyethoxy)phenyl]-N-[4-[(S)-hydroxy(1-oxidopyridin-2-yl)methyl]phenyl]-2,3-dihydro-1H-1-benzazepine-4-carboxamide], the melting point lay in the range of 89 to 93 °C. The figure for `CCCCOCCOc1ccc(-c2ccc3c(c2)C=C(C(=O)Nc2ccc(/C(Cc4nccn4CCC)=N/OC)cc2)CCN3CC(C)C)cc1` [Compound 448, 7-[4-(2-butoxyethoxy)phenyl]-1-isobutyl-N-[4-((1E)-N-methoxy-2-(1-propylimidazol-2-yl)ethanimidoyl)phenyl]-2,3-dihydro-1H-1-benzazepine-4-carboxamide] is 159 to 161 °C; for `CCCCOCCOc1ccc(-c2ccc3c(c2)C=C(C(=O)Nc2ccc(C(O)c4ccc(Cl)c[n+]4[O-])cc2)CCN3CC(C)C)cc1` (stereo not shown) [Compound 110, 7-[4-(2-butoxyethoxy)phenyl]-N-[4-[hydroxy(5-chloro-1-oxidopyridin-2-yl)methyl]phenyl]-1-isobutyl-2,3-dihydro-1H-1-benzazepine-4-carboxamide] it is 137 to 139 °C; for `CCCCOCCOc1ccc(-c2ccc3c(c2)C=C(C(=O)Nc2ccc(C(O)c4cc(C)cc[n+]4[O-])c(OC)c2)CCN3CC(C)C)cc1` (stereo not shown) [Compound 10, 7-[4-(2-butoxyethoxy)phenyl]-N-[4-[hydroxy(4-methyl-1-oxidopyridin-2-yl)methyl]-3-methoxyphenyl]-1-isobutyl-2,3-dihydro-1H-1-benzazepine-4-carboxamide] it is 174 to 176 °C. The figure for `CCCCOCCOc1ccc(-c2ccc3c(c2)C=C(C(=O)Nc2ccc(C(O)c4cccc[n+]4[O-])c(Cl)c2)CCN3CC(C)C)cc1` (stereo not shown) [Compound 6, 7-[4-(2-butoxyethoxy)phenyl]-N-[3-chloro-4-[hydroxy(1-oxidopyridin-2-yl)methyl]phenyl]-1-isobutyl-2,3-dihydro-1H-1-benzazepine-4-carboxamide] is 105 to 107 °C; for `CCCCOCCOc1ccc(-c2ccc3c(c2)C=C(C(=O)Nc2ccc([S+]([O-])Cc4nncn4CC(C)C)cc2)CCN3CCC)cc1` (stereo not shown) [Compound 33, 7-[4-(2-butoxyethoxy)phenyl]-N-[4-((4-isobutyl-4H-1,2,4-triazol-3-yl)methylsulfinyl]phenyl]-1-propyl-2,3-dihydro-1H-1-benzazepine-4-carboxamide] it is 186 to 190 °C (dec.); for `CCCCOCCOc1ccc(-c2ccc3c(c2)C=C(C(=O)Nc2ccc(S(=O)(=O)Cc4cncn4CC(N)=O)cc2)CCN3CC(C)C)cc1` [Compound 431, N-[4-[[[1-(2-amino-2-oxoethyl)-1H-imidazol-5-yl]methyl]sulfonyl]phenyl]-7-[4-(2-butoxyethoxy)phenyl]-1-isobutyl-2,3-dihydro-1H-1-benzazepine-4-carboxamide] it is 229 to 231 °C. The same measure for `CCCCOCCOc1ccc(-c2ccc3c(c2)C=C(C(=O)Nc2ccc([S+]([O-])Cc4nncn4CCCC)cc2)CCN3CCC)cc1` (stereo not shown) [Compound 145, 7-[4-(2-butoxyethoxy)phenyl]-N-[4-(4-n-butyl-4H-1,2,4-triazol-3-ylmethylsulfinyl)phenyl]-1-propyl-2,3-dihydro-1H-benzazepine-4-carboxamide]: 157 to 160 °C; for `CCCCOCCOc1ccc(-c2ccc3c(c2)C=C(C(=O)Nc2ccc(C(O)c4cccc(C)[n+]4[O-])cc2)CCN3C(=O)C(F)(F)F)cc1` (stereo not shown) [Compound 96, 7-[4-(2-butoxyethoxy)phenyl]-N-[4-[hydroxy(6-methyl-1-oxidopyridin-2-yl)methyl]phenyl]-1-trifluoroacetyl-2,3-dihydro-1H-1-benzazepine-4-carboxamide]: 170 to 173 °C; for `CCCCOCCOc1ccc(-c2ccc3c(c2)C=C(C(=O)Nc2ccc([C@H](O)c4ccccn4)cc2)CCN3C(=O)C(F)(F)F)cc1` [Compound 79, 7-[4-(2-butoxyethoxy)phenyl]-N-[4-[(S)-hydroxy(2-pyridyl)methyl]phenyl]-1-trifluoroacetyl-2,3-dihydro-1H-1-benzazepine-4-carboxamide]: 100 to 102 °C. The molecule `CCCCOCCOc1ccc(-c2ccc3c(c2)C=C(C(=O)Nc2ccc([S+]([O-])Cc4c(C)nc5ccccn45)cc2)CCN3CCC)cc1` (stereo not shown) [Compound 165, 7-[4-(2-butoxyethoxy)phenyl]-N-[4-(2-methylimidazo[1,2-a]pyridin-3-ylmethylsulfinyl)phenyl]-1-propyl-2,3-dihydro-1H-benzazepine-4-carboxamide] showed a melting point of 134 to 137 °C. The figure for `CCCCOCCOc1ccc(-c2ccc3c(c2)C=C(C(=O)Nc2ccc([S+]([O-])Cc4ncon4)cc2)CCN3CC(C)C)cc1` (stereo not shown) [Compound 129, 7-[4-(2-butoxyethoxy)phenyl]-1-isobutyl-N-[4-(1,2,4-oxadiazol-3-ylmethylsulfinyl)phenyl]-2,3-dihydro-1H-benzazepine-4-carboxamide] is 142 to 144 °C; for `CCCCOCCOc1ccc(-c2ccc3c(c2)C=C(C(=O)Nc2ccc([C@H](O)c4cccc[n+]4[O-])cc2)CCN3C=O)cc1` [Compound 77, 7-[4-(2-butoxyethoxy)phenyl]-1-formyl-N-[4-[(S)-hydroxy(1-oxidopyridin-2-yl)methyl]phenyl]-2,3-dihydro-1H-1-benzazepine-4-carboxamide] it is 120 to 125 °C; for `CCCCOCCOc1ccc(-c2ccc3c(c2)C=C(C(=O)Nc2ccc(OCc4nccn4CCC)cc2)CCN3CC(C)C)cc1` [Compound 25, 7-[4-(2-butoxyethoxy)phenyl]-1-isobutyl-N-[4-[(1-propylimidazole-2-yl)methoxy]phenyl]-2,3-dihydro-1H-1-benzazepine-4-carboxamide] it is 118 to 120 °C. The figure for `CCCCOCCOc1ccc(-c2ccc3c(c2)C=C(C(=O)Nc2ccc([C@@H](O)c4cccc[n+]4[O-])cc2)CCN3C=O)cc1` [Compound 78, 7-[4-(2-butoxyethoxy)phenyl]-1-formyl-N-[4-[(R)-hydroxy(1-oxidopyridin-2-yl)methyl]phenyl]-2,3-dihydro-1H-1-benzazepine-4-carboxamide] is 104 to 106 °C.

Molecule `CCCCOCCOc1ccc(-c2ccc3c(c2)C=C(C(=O)Nc2ccc([C@H](O)c4cccc[n+]4[O-])cc2)CCN3S(C)(=O)=O)cc1` [Compound 94, 7-[4-(2-butoxyethoxy)phenyl]-N-[4-[(S)-hydroxy(1-oxidopyridin-2-yl)methyl]phenyl]-1-methanesulfonyl-2,3-dihydro-1H-1-benzazepine-4-carboxamide] showed a melting point of 118 to 120 °C. The figure for `CCCCOCCOc1ccc(-c2ccc3c(c2)C=C(C(=O)Nc2ccc(C(O)c4ncccc4OCCC)cc2)CCN3C(=O)C(F)(F)F)cc1` (stereo not shown) [Compound 111, 7-[4-(2-butoxyethoxy)phenyl]-N-[4-[hydroxy(3-propoxypyridin-2-yl)methyl]phenyl]-1-trifluoroacetyl-2,3-dihydro-1H-1-benzazepine-4-carboxamide] is 154 to 157 °C; for `CCCCOCCOc1ccc(-c2ccc3c(c2)C=C(C(=O)Nc2ccc(C(O)c4ccc(Cl)c[n+]4[O-])cc2)CCN3C(=O)C(F)(F)F)cc1` (stereo not shown) [Compound 108, 7-[4-(2-butoxyethoxy)phenyl]-N-[4-[hydroxy(5-chloro-1-oxidopyridin-2-yl)methyl]phenyl]-1-trifluoroacetyl-2,3-dihydro-1H-1-benzazepine-4-carboxamide] it is 200 to 203 °C.

On to `CCCCOCCOc1ccc(-c2ccc3c(c2)C=C(C(=O)Nc2ccc([S+]([O-])Cc4nncn4CCC)nc2)CCN3CC(C)C)cc1` (stereo not shown) [Compound 54, 7-[4-(2-butoxyethoxy)phenyl]-1-isobutyl-N-[2-(4-propyl-4H-1,2,4-triazol-3-yl)methylsulfinylpyridin-5-yl]-2,3-dihydro-1H-1-benzazepine-4-carboxamide], for which the melting point fell in the range of 135 to 138 °C.

In the case of `CCCCOCCOc1ccc(-c2ccc3c(c2)C=C(C(=O)Nc2ccc([S+]([O-])CCn4cnnc4)cc2)CCN3CC(C)C)cc1` (stereo not shown) [Compound 155, 7-[4-(2-butoxyethoxy)phenyl]-N-[4-(4H-1,2,4-triazol-4-ylethylsulfinyl)phenyl]-1-isobutyl-2,3-dihydro-1H-benzazepine-4-carboxamide], the melting point was 168 to 170 °C.
